Experimental data published in patent publication US10005803B2, “Crystalline forms of fosnetupitant” (Helsinn Healthcare SA, priority 2015, dated 2018).
Entries after “also recorded” stand apart in the source; their conditions may differ.

Assays:
[1] = Gravimetric Vapor Sorption (GVS); format: physicochemical; conditions: for Overall moisture uptake: 0% to 90% RH (Form I: % w/w, whole studied RH range up to 90% RH); for Moisture uptake / gradual Wt increase: from 0% to 50% RH; for Largest Wt increase: from 70 to 90% RH; for Hygroscopicity class by GVS: weight increase at 80% RH
Experimental: 1.7.6 Gravimetric Vapor Sorption (GVS)
Approximately 20 mg of sample was placed into a wire-mesh vapor sorption balance pan and loaded into an ‘IgaSorp’ vapor sorption balance (Hiden Analytical Instruments). The sample was then dried by maintaining a 0% humidity environment until no further weight change was recorded. Subsequently, the sample was subjected to a ramping profile from 0-90% RH at 10% RH increments, maintaining the sample at each step until equilibration had been attained (99.5% step completion). Upon reaching equilibration, the % RH within the apparatus was ramped to the next step and the equilibration procedure repeated. After completion of the sorption cycle, the sample was dried using the profile from 85-5% RH at 10% RH increments same procedure. At last, the sample was dried by maintaining a 0% humidity environment until no further weight change was recorded. The weight change during the sorption/desorption cycles were then monitored, allowing the hygroscopic nature of the sample to be determined.

[2] = Stability studies at 40° C./75% RH (open vial); format: physicochemical; conditions: 1 week (7 days), checked by XRPD, Raman
Experimental: The polymorphs identified were stored at 40° C./75% RH (open vial). Each sample was put in a glass vial un-capped. Analysis was carried out at 7 days by XRPD and Raman for any potential change in crystalline structure.

[3] = Experimental: The solubility of the starting compound was determined in 25 pharmaceutically acceptable solvents (class II and III) of differing polarity. The procedure was as follows:
Approximately 20 mg of material was weighed out into each glass vial.
The mixture was stirred at RT for 5-10 minutes. Visual checks were then made for solubility.
If no solubility was achieved then steps (ii) and (iii) were repeated until either the solubility was achieved or the 50 volume aliquots of that solvent were added.
Solubility was then approximated.
Solubility was finally checked at the elevated temperature (40° C.).

Overall moisture uptake [1]	Loss of weight in absorption process ([1]; at 80% RH)	Moisture uptake / gradual Wt increase [1]	Largest Wt increase [1]	Hygroscopicity class by GVS [1]	Sharp Wt increase in absorption ([1]; @10% RH)	Loss of weight in the absorption process ([1]; at 60% RH)	Moisture uptake ([1]; from 0 to 70% RH)	Gradual Wt increases, total ([1]; from 20 to 70% RH)	Solubility (in words) [3]	Form change detected by GVS ([1]; sorption/desorption cycle 0-90% RH)	Compound	Generated form (change in crystalline structure) [2]
circa 25%	~5.82 % w/w	circa 5.19%	circa 8.63 % w/w	very hygroscopic (>15%@80% RH)							Cc1ccccc1-c1cc(N2CC[N+](C)(COP(=O)(O)O)CC2)ncc1N(C)C(=O)C(C)(C)c1cc(C(F)(F)F)cc(C(F)(F)F)c1.Cl.[Cl-] [Form III, 4-(5-(2-(3,5-bis(trifluoromethyl)phenyl)-N,2-dimethylpropanamido)-4-(o-tolyl)pyridin-2-yl)-1-methyl-1-((phosphonooxy)methyl)piperazin-1-ium]	changes in crystalline structures; also recorded: changed
circa 12.75%			circa 8.63 % w/w	hygroscopic (15%>Wt increase>2%%@80% RH)	circa 2.92 % w/w	~0.2 % w/w	circa 4.12%	circa 1.2 % w/w			Cc1ccccc1-c1cc(N2CC[N+](C)(COP(=O)(O)O)CC2)ncc1N(C)C(=O)C(C)(C)c1cc(C(F)(F)F)cc(C(F)(F)F)c1.Cl.[Cl-] [Form II, 4-(5-(2-(3,5-bis(trifluoromethyl)phenyl)-N,2-dimethylpropanamido)-4-(o-tolyl)pyridin-2-yl)-1-methyl-1-((phosphonooxy)methyl)piperazin-1-ium]	not and No change
about 45%		about 5%		very hygroscopic (>15%@80% RH)					very poor solubility	No form changes were detected	Cc1ccccc1-c1cc(N2CC[N+](C)(COP(=O)(O)O)CC2)ncc1N(C)C(=O)C(C)(C)c1cc(C(F)(F)F)cc(C(F)(F)F)c1.Cl.[Cl-] [Form I, 4-(5-(2-(3,5-bis(trifluoromethyl)phenyl)-N,2-dimethylpropanamido)-4-(o-tolyl)pyridin-2-yl)-1-methyl-1-((phosphonooxy)methyl)piperazin-1-ium]	changes in crystalline structures; also recorded: changed
